Data on one compound can be found in patent publication US20180057530A1, “CYCLIC PEPTIDE COMPOUND, AND PREPARATION AND USE THEREOF” (Zhejiang Hisun Pharmaceutical Co., Ltd., priority 2015, published 2018).

pIC50: −log10 of the molar value.

In one experiment the test system is tumor cells. As to the kind of experiment: MTT tumor cell growth inhibition, summary over the cell line panel. Type of experiment: cell-based. As to conditions: ten tumor cell lines of Table 2, MTT, 72 hours; read-out: IC50 of tumor cell proliferation inhibition, span over the tested cell lines. The text has this: (§1) The tetrazolium salt (MTT) reduction method was used to test the activity of the compounds of the present invention. Human breast cancer cells (MDA-MB-231) (CAS cell library; catalog number: TCHu227), human lung cancer cells (A549) (ATCC® Number: CRM-CCL-185™), human colon cancer cells (HCT-116) (CAS cell library; catalog number: TCHu99), acute monocytic leukemia cells (MV4-11) (ATCC® Number: CRL-9591™), tissue cell lymphoma cells (U-937) (CAS cell library; catalog number: TCHu159), human acute promyelocytic leukemia cells (HL-60) (ATCC® Number: CCL-240™), chronic myelogenous leukemia cells (of K562) (CAS cell library; catalog number: TCHu191), human hepatocellular carcinoma cells (BEL-7404) (CAS cell library; catalog number: TCHu64), human pancreatic cancer cells (BxPC3) (ATCC® Number: […])) and human prostate cancer cells (PC-3) (ATCC®Number: […]) were inoculated in 96-well plates, 90 μL/well, with 3000 to 8000 cells in respective well; in the first row of plate, 100 μL/well culture medium was added; the 96-well plate was pre-incubated in an incubator at 37° C., 5% CO2, and 100% relative humidity for 24 hours.
(§2) A compound was weighed and configured to a 10 mM/L stock solution, and the compound was diluted three-fold sequentially from the highest concentration of 2 millimoles (mM); 95 μl the corresponding cell medium was added to each well of a V-bottom dispensing plate; 5 μl of the compound on a 200× plate was transferred to a 10× dispensing plate according to the concentration; 5 μl of dimethylsulfoxide (DMSO) was evenly mixed in the corresponding 95 μl cell culture medium as a vehicle control. 10 μl of the compound-medium in each well of the 10× dispensing plate was added to a 96-well plate already plated with cells. […]
(§3) After the compound for cells was treated for 72 hours, 20 microliters of 5 mg/ml MTT was added to each well; all the steps need to be aseptic. […] The absorbance at 490 nm was read on a SpectraMax M2e instrument. The compound activity (relative IC50) was calculated using GraphPad Prism software.

Experiment [1] concerns human colon cancer cells (HCT-116). As to the kind of experiment: MTT tumor cell growth inhibition, HCT-116. Type of experiment: cell-based. The following applies: HCT-116, MTT, 72 hours, relative IC50.
Source text: as §1, §2, §3

The test system of experiment [2] is acute monocytic leukemia cells (MV4-11). As to the kind of experiment: MTT tumor cell growth inhibition, MV4-11. Type of experiment: cell-based. The following applies: Homo sapiens; MV4-11, MTT, 72 hours, relative IC50.
Source text: as §1, §2, §3

Experiment [3] concerns human lung cancer cells (A549). As to the kind of experiment: MTT tumor cell growth inhibition, A549. Type of experiment: cell-based. The following applies: 72 hours, relative IC50.
Source text: as §1, §2, §3

The subject of experiment [4] is human pancreatic cancer cells (BxPC3). As to the kind of experiment: MTT tumor cell growth inhibition, BxPC3. The class given is cell-based. As to conditions: BXPC-3, 72 hours, relative IC50.
Source text: as §1, §2, §3

For experiment [5], the system named is Human breast cancer cell line MDA-MB-231. As to the kind of experiment: In vivo pharmacodynamic study of compound A, MDA-MB-231 nude mice transplanted tumor model. On the set-up: species or system BALB/C nude mice. The following applies: MDA-MB-231 model, 2.4 mg/kg, q4d, 4x. As to the method:
(§4) Female BALB/C nude mice 6 weeks to 8 weeks old and weighing about 19 g to 29 g were taken (Supplier: Beijing Vital River Laboratory Animal Technology Co., Ltd.) and raised for a week. A human cancer nude mice […] transplanted tumor model was established: Human breast cancer cell line MDA-MB-231 (ATCC® Number: HTB-26™) and human lung cancer cell line NCI-H460 (ATCC® Number: HTB-177™) were incubated. The monolayer tumor cells were digested and detached; then, they were collected and resuspended in a serum-free culture medium, and then were adjusted to a concentration of 2×10^6/0.2 mL. They were put into an iced box and brought to an animal house. A syringe with a No. 6 needle was used to directly take a 0.2 mL cell suspension and transplanted it into the rear subcutaneous scapular regions of the left axillaries of the nude mice at 2×10^6/0.2 mL per mouse. Tumor volumes were measured once every 2 days to 3 days. After two weeks, tumor-bearing nude mice with vigorous tumor growth and no ulceration were selected, the tumors were removed from them under sterile conditions. The tumor tissues were cut to about 2 mm to 3 mm in diameter and inoculated in the rear subcutaneous scapular regions of the left axillaries of the nude mice. After passage for three generations, when the tumor volume grew to 100 mm^3, nude mice with tumor masses that were too large or too small were removed and randomly grouped for administration.
(§5) The mice were randomly divided into five groups, including the negative control group (vehicle), positive control group (Romidepsin, 2.4 mg/kg), treatment group with the high, medium, and low doses of compound A (respectively 7.2 mg/kg, 4.8 mg/kg, 2.4 mg/kg, wherein the high dose was lower than the maximum tolerated dose, MTD); there were six nude mice in each group; intravenous administration was given every 4 days; 4 doses were given. During the period, the weights and tumor volumes of the animals were measured every 2 days, and the number of animal deaths was recorded. 24 hours after the last administration, the animals were sacrificed. The tumor volumes, tumor weights, and body weights of nude mice were measured; tumor volume growth curves, nude mice weight growth curves and tumor inhibition rates, mortality of the animals were plotted; the relative tumor proliferation rate T/C (%) was calculated; according to the formula T/C (%)=TRTV/CRTV*100%. (TRTV: treatment group RTV; CRTV: negative control group RTV, relative tumor volume RTV=Vt/V0, wherein V0 is the tumor volume at the time of administration by group; Vt is the post-administration tumor volume).

Experiment [6] concerns chronic myelogenous leukemia cells (K562). As to the kind of experiment: MTT tumor cell growth inhibition, K562. The class given is cell-based. As to conditions: Homo sapiens, 72 hours, relative IC50.
Source text: as §1, §2, §3

Experiment [7] relates to human hepatocellular carcinoma cells (BEL-7404). As to the kind of experiment: MTT tumor cell growth inhibition, BEL-7404. The following applies: BEL-7404, MTT, 72 hours, relative IC50. The class given is cell-based.
Source text: as §1, §2, §3

Experiment [8] concerns human acute promyelocytic leukemia cells (HL-60). As to the kind of experiment: MTT tumor cell growth inhibition, HL-60. Type of experiment: cell-based. The following applies: HL-60, MTT, 72 hours, relative IC50.
Source text: as §1, §2, §3

Experiment [9] relates to Human breast cancer cells (MDA-MB-231). As to the kind of experiment: MTT tumor cell growth inhibition, MDA-MB-231. The class given is cell-based. As to conditions: MDA-MB-231, MTT, 72 hours, relative IC50.
Source text: as §1, §2, §3

Experiment [10] has as its system human lung cancer cell line NCI-H460. As to the kind of experiment: In vivo pharmacodynamic study of compound A, NCI-H460 nude mice transplanted tumor model. Further details: species or system BALB/C nude mice. The following applies: 2.4 mg/kg, q4d, 4x. As to the method:
as §4, §5

Experiment [11] relates to tissue cell lymphoma cells (U-937). As to the kind of experiment: MTT tumor cell growth inhibition, U-937. The class given is cell-based. The following applies: Homo sapiens; U-937, MTT, 72 hours, relative IC50.
Source text: as §1, §2, §3

On to `C/C=C1\NC(=O)[C@H]2CSSCC/C=C/[C@H](CC(=O)N[C@H](C(C)C)C(=O)N2)OC(=O)[C@H](C(C)C)NC1=O` [Romidepsin, reference compound], for which the pIC50 in the experiment on tumor cells was 8.06 to 8.44; in [1], 8.19; in experiment [2] it was 8.17; in experiment [3], 8.28; in experiment [4], 8.06; in experiment [6], 8.39. In addition, the pIC50 in [7] is 8.19; in [8], 8.07; in experiment [9], 8.44; in [11] it was 8.14. Besides, the “Relative tumor proliferation rates T/C (%)” value in [5] was 48.9%(2.4 mg/kg, q4d, 4x); in [10] it was 42.2%(2.4 mg/kg, q4d, 4x).
